What was measured:
[1] = target: T1, recombinant human ACC1 (rhACC1) (Homo sapiens, UniProt Q13085, DEL44-44); experiment: recombinant hACC1 Transcreener ADP detection FP assay; type: biochemical; conditions: 50 μM ATP, 30 μM acetyl-CoA
T1 construct: recombinant baculovirus containing full length human ACC1 cDNA; made in house; host or cells: SF9 insect cells, recombinant baculovirus
Description: (§1) For example direct inhibition of ACC activity, for the compound of Formula (I) was determined using preparations of recombinant human ACC1 (rhACC1) and recombinant human ACC2 (rhACC2). Representative sequences of the recombinant human ACC1 and ACC2 that can be used in the assay are provided herein as SEQ ID NO. 1 and SEQ. ID NO. 2, respectively.
[1] Preparation of rhACC1. Two liters of SF9 cells, infected with recombinant baculovirus containing full length human ACC1 cDNA, were suspended in ice-cold lysis buffer (25 mM Tris, pH 7.5; 150 mM NaCl; 10% glycerol; 5 mM imidazole (EMD Bioscience; Gibbstown, N.J.); 2 mM TCEP (BioVectra; Charlottetown, Canada); Benzonase nuclease (10000 U/100 g cell paste; Novagen; Madison, Wis.); EDTA-free protease inhibitor cocktail (1 tab/50 mL; Roche Diagnostics; Mannheim, Germany). Cells were lysed by 3 cycles of freeze-thaw and centrifuged at 40,000×g for 40 minutes (4° C.). Supernatant was directly loaded onto a HisTrap FF crude column (GE Healthcare; Piscataway, N.J.) and eluted with an imidazole gradient up to 0.5 M over 20 column volumes (CV). ACC1-containing fractions were pooled and diluted 1:5 with 25 mM Tris, pH 7.5, 2 mM TCEP, 10% glycerol and direct loaded onto a CaptoQ (GE Healthcare) column and eluted with an NaCl gradient up to 1 M over 20 CV's. Phosphate groups were removed from purified ACC1 by incubation with lambda phosphatase (100 U/10 μM target protein; New England Biolabs; Beverly, Mass.) for 14 hours at 4° C.; okadaic acid was added (1 μM final concentration; Roche Diagnostics) to inhibit the phosphatase. Purified ACC1 was exchanged into 25 mM Tris, pH 7.5, 2 mM TCEP, 10% glycerol, 0.5 M NaCl by 6 hour dialysis at 4° C. Aliquots were prepared and frozen at −80° C.
[2] Measurement of rhACC1 inhibition. hACC1 was assayed in a Costar #3676 (Costar, Cambridge, Mass.) 384-well plate using the Transcreener ADP detection FP assay kit (Bellbrook Labs, Madison, Wis.) using the manufacturer's recommended conditions for a 50 μM ATP reaction. The final conditions for the assay were 50 mM HEPES, pH 7.2, 10 mM MgCl2, 7.5 mM tripotassium citrate, 2 mM DTT, 0.1 mg/mL BSA, 30 μM acetyl-CoA, 50 μM ATP, and 10 mM KHCO3 Typically, a 10 μl reaction was run for 120 min at 25° C., and 10 μl of Transcreener stop and detect buffer was added and the combination incubated at room temp for an additional 1 hour. The data was acquired on a Envision Fluorescence reader (Perkinelmer) using a 620 excitation Cy5 FP general dual mirror, 620 excitation Cy5 FP filter, 688 emission (S) and a 688 (P) emission filter.
(§2) The results using the recombinant hACC1 and recombinant hACC2 Transcreener assays described above are summarized in the table below for the Compounds of Formula (I) exemplified in the Examples above.

[2] = target: T2, recombinant human ACC2 (rhACC2) (Homo sapiens, UniProt O00763, V2141I); experiment: recombinant hACC2 Transcreener ADP detection FP assay; type: biochemical; conditions: 50 μM ATP, 30 μM acetyl-CoA
T2 construct: a full length Cytomax clone of ACC2 was purchased from Cambridge Bioscience Limited; made in house; host or cells: CHO cells, tetracycline-induced (PcDNA5 FRT TO-TOPO)
Description: as §1
[3] Preparation of rhACC2. Human ACC2 inhibition was measured using purified recombinant human ACC2 (hrACC2). Briefly, a full length Cytomax clone of ACC2 was purchased from Cambridge Bioscience Limited and was sequenced and subcloned into PcDNA5 FRT TO-TOPO (Invitrogen, Carlsbad, Calif.). The ACC2 was expressed in CHO cells by tetracycline induction and harvested in 5 liters of DMEM/F12 with glutamine, biotin, hygromycin and blasticidin with 1 μg/mL tetracycline (Invitrogen, Carlsbad, Calif.). The conditioned medium containing ACC2 was then applied to a Softlink Soft Release Avidin column (Promega, Madison, Wis.) and eluted with 5 mM biotin. 4 mgs of ACC2 were eluted at a concentration of 0.05 mg/mL (determined by A280) with an estimated purity of 95% ([…]). The purified ACC2 was dialyzed in 50 mM Tris, 200 mM NaCl, 4 mM DTT, 2 mM EDTA, and 5% glycerol. The pooled protein was frozen and stored at −80° C., with no loss of activity upon thawing. For measurement of ACC2 activity and assessment of ACC2 inhibition, test compounds were dissolved in DMSO and added to the rhACC2 enzyme as a 5× stock with a final DMSO concentration of 1%.
[4] Measurement of human ACC2 inhibition. hACC2 was assayed in a Costar #3676 (Costar, Cambridge, Mass.) 384-well plate using the Transcreener ADP detection FP assay kit (Bellbrook Labs, Madison, Wis.) using the manufacturer's recommended conditions for a 50 uM ATP reaction. The final conditions for the assay were 50 mM HEPES, pH 7.2, 5 mM MgCl2, 5 mM tripotassium citrate, 2 mM DTT, 0.1 mg/mL BSA, 30 μM acetyl-CoA, 50 μM ATP, and 8 mM KHCO3. Typically, a 10 μl reaction was run for 50 min at 25° C., and 10 μl of Transcreener stop and detect buffer was added and the combination incubated at room temp for an additional 1 hour. The data was acquired on an Envision Fluorescence reader (Perkinelmer) using a 620 excitation Cy5 FP general dual mirror, 620 excitation Cy5 FP filter, 688 emission (S) and a 688 (P) emission filter.
as §2

T2 sequence (O00763 whole entry V2141I): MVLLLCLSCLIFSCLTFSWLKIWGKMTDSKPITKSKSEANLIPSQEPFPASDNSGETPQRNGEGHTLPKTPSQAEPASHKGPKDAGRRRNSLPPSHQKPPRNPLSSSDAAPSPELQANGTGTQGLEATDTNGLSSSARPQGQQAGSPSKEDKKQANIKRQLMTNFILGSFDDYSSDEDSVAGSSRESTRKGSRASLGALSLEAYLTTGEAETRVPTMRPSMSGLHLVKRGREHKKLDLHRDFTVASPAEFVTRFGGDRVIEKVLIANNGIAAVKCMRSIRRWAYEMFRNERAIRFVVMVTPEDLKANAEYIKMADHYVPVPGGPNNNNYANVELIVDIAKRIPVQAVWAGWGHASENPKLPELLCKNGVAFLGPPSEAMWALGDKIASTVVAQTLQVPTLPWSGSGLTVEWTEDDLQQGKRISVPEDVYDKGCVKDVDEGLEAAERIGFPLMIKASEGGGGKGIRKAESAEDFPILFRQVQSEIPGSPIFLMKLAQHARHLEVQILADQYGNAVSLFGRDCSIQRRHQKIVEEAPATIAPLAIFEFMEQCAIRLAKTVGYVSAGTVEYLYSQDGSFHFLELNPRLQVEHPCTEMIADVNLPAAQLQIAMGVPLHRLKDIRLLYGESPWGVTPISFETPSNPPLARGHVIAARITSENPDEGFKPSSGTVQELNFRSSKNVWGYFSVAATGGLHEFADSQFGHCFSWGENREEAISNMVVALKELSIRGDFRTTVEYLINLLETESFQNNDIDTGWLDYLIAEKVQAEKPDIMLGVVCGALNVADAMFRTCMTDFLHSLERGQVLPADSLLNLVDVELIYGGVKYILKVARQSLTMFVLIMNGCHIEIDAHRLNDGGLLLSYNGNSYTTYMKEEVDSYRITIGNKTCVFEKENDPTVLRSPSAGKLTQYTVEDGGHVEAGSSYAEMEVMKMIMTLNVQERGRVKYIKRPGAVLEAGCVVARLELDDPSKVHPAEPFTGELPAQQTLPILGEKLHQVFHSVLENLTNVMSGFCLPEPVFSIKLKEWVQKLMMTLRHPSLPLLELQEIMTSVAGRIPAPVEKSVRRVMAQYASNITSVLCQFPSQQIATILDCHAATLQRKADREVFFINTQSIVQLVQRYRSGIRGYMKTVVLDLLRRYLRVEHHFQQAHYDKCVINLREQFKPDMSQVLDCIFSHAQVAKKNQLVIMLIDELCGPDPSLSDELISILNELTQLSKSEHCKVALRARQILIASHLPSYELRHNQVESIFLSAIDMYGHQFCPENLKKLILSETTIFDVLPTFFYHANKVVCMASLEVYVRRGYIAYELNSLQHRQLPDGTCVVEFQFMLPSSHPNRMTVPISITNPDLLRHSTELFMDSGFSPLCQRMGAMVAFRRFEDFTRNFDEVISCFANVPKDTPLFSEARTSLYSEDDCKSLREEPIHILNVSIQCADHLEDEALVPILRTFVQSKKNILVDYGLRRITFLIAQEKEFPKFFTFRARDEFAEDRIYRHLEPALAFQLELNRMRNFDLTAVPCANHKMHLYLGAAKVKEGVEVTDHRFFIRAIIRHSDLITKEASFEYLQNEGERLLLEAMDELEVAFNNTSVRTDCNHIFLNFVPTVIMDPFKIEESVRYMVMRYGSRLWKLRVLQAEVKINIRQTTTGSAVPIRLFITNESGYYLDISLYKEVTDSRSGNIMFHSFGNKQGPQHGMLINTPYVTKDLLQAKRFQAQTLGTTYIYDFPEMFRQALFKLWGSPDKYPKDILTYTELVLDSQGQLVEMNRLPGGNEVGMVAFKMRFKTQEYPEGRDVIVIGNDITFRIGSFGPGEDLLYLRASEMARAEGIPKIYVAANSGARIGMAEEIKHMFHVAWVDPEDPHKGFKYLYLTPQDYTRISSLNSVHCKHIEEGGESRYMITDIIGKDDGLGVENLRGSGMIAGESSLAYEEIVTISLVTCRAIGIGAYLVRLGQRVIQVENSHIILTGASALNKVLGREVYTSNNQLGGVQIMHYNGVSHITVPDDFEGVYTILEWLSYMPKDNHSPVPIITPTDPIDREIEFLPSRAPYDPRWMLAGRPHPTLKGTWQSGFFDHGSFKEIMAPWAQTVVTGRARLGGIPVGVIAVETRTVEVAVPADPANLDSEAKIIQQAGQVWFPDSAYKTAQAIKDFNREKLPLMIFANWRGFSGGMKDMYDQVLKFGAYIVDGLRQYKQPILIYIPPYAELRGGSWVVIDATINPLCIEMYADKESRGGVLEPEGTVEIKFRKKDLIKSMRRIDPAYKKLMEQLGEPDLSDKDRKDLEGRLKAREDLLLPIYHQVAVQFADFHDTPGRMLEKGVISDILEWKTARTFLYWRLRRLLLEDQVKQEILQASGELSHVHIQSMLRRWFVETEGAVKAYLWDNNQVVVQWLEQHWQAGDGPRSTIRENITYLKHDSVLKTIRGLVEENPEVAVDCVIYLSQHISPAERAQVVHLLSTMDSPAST

| IC50 [1] [nM] | IC50 [2] [nM] | Structure (SMILES) |
| --- | --- | --- |
| 31 | 5.4 | CC(C)(C)n1cc2c(n1)C(=O)CC1(CCN(C(=O)c3cnc4ccc(C(N)=O)cc4c3)CC1)C2 [Example 44] |
| 2.2 | 1.3 | CNc1ccc2ccc(C(=O)N3CCC4(CC3)CC(=O)c3nn(C(C)(C)C)cc3C4)cc2n1 [Example 40] |
| 12 | 1.4 | CC(C)(C)n1cc2c(n1)C(=O)CC1(CCN(C(=O)c3ccc4[nH]c(N)nc4c3)CC1)C2 [Example 35] |
| 14 | 3.8 | CC(C)(C)n1cc2c(n1)C(=O)CC1(CCN(C(=O)c3cnc4ccc(OCC(N)=O)cc4c3)CC1)C2 [Example 46, 2-({3-[(2-tert-butyl-7-oxo-2,4,6,7-tetrahydro-1′H-spiro[indazole-5,4′-piperidin]-1′-yl)carbonyl]quinolin-6-yl}oxy)acetamide] |
| 6.6 | 1.8 | CC(C)(C)n1cc2c(n1)C(=O)CC1(CCN(C(=O)c3cnc4c(Cl)c[nH]c4c3)CC1)C2 [Example 42] |
| 8.6 | 1.7 | CC(C)(C)n1cc2c(n1)C(=O)CC1(CCN(C(=O)c3ccc4c(C(N)=O)n[nH]c4c3)CC1)C2 [Example 29] |
| 3.1 | 1 | CC(C)(C)n1cc2c(n1)C(=O)CC1(CCN(C(=O)c3ccc4[nH]cc(C(N)=O)c4c3)CC1)C2 [Example 33] |
| 8.1 | 1.5 | CC(C)(C)n1cc2c(n1)C(=O)CC1(CCN(C(=O)c3ccc4[nH]c(C(N)=O)cc4c3)CC1)C2 [Example 32] |

Further lines, the molecule ahead of its results:

| Structure (SMILES) | IC50 [1] [nM] | IC50 [2] [nM] |
| --- | --- | --- |
| CC(C)n1ncc2c1C(=O)CC1(CCN(C(=O)c3ccc4[nH]c(N)nc4c3)CC1)C2 [Example 8] | 17 | 3.3 |
| CC(C)(C)n1ncc2c1C(=O)CC1(CCN(C(=O)c3ccc4[nH]nc(C(N)=O)c4c3)CC1)C2 [Example 26] | 7.4 | 2.1 |
| CC(C)n1ncc2c1C(=O)CC1(CCN(C(=O)c3cnc4[nH]cc(C(N)=O)c4c3)CC1)C2 [Example 5] | 17 | 5.8 |
| CC(C)n1ncc2c1C(=O)CC1(CCN(C(=O)c3ccc4[nH]cc(C(N)=O)c4c3)CC1)C2 [Example 7] | 5.6 | 1.6 |
| CC(C)n1ncc2c1C(=O)CC1(CCN(C(=O)c3ccc4cc(C(N)=O)[nH]c4c3)CC1)C2 [Example 12] | 13 | 3 |
| CC(C)n1ncc2c1C(=O)CC1(CCN(C(=O)c3ccc4nc(N)ccc4c3)CC1)C2 [Example 15] | 14 | 2.6 |
| CC(C)n1ncc2c1C(=O)CC1(CCN(C(=O)c3cnc4c(Cl)c[nH]c4c3)CC1)C2 [Example 16] | 6.7 | 3.1 |
| CC(C)n1ncc2c1C(=O)CC1(CCN(C(=O)c3ccc4[nH]nc(C(=O)NCC(F)(F)F)c4c3)CC1)C2 [Example 11] | 14 | 5.5 |
| CC(C)n1ncc2c1C(=O)CC1(CCN(C(=O)c3ccc4[nH]nc(C(N)=O)c4c3)CC1)C2 [Example 2, 5-[(1-isopropyl-7-oxo-1,4,6,7-tetrahydro-1′H-spiro[indazole-5,4′-piperidin]-1′-yl)carbonyl]-1H-indazole-3-carboxamide] | 7.9 | 3.1 |
| CNc1ccc2ccc(C(=O)N3CCC4(CC3)CC(=O)c3c(cnn3C(C)C)C4)cc2n1 [Example 13] | 2.4 | 1.5 |
| CC(C)n1ncc2c1C(=O)CC1(CCN(C(=O)c3cnc4[nH]c(C(N)=O)cc4c3)CC1)C2 [Example 19, 5-[(1-isopropyl-7-oxo-1,4,6,7-tetrahydro-1′H-spiro[indazole-5,4′-piperidin]-1′-yl)carbonyl]-1H-pyrrolo[2,3-b]pyridine-2-carboxamide] | 63 | 15 |
| CC(C)n1ncc2c1C(=O)CC1(CCN(C(=O)c3ccc4c(C(N)=O)n[nH]c4c3)CC1)C2 [Example 4] | 6.5 | 2.9 |

Reference: patent US8802688B2, “Substituted acetyl-coa carboxylase inhibitors” (Pfizer Inc., priority 2011, dated 2014)
